Measured values as given in PMC6395927, “Rufomycin Targets ClpC1 Proteolysis in Mycobacterium tuberculosis and M. abscessus” (Antimicrobial Agents and Chemotherapy, 2019).
“And” between values parts separate entries of the source, which are not always exact repeats. Equal values may be shown once.

What was measured:
Format in all cases: cell-based, Mycobacterium tuberculosis
[1] = test system: M. tuberculosis clinical isolates (pan-susceptible, MDR, XDR)
[2] = test system: rECU M. tuberculosis strains (clpC1 mutants)
[3] = test system: rRUFI M. tuberculosis strains (clpC1 mutants)

Compound	activity against monoresistant, MDR, and XDR strains [1]	MIC [2]	MIC [3]
C/C=C/C[C@@H]1NC(=O)[C@H](CC(C)C)N2C(=O)C(C[C@H](C)[C@H]2O)N(C)C(=O)[C@H](C)NC(=O)[C@H](Cc2ccc(O)c([N+](=O)[O-])c2)NC(=O)[C@H](CC(C)C)N(C)C(=O)[C@H](Cc2cn(C(C)(C)C3CO3)c3ccccc23)NC1=O (some centres unmarked) [RUFI, rufomycin I]	maintains activity	<0.01 µM and 0.017 µM	–
capreomycin	–	0.42 µM and 0.49 µM	–
NNC(=O)c1ccncc1 [INH, isoniazid]	–	–	0.22 µM and 0.23 µM and 0.12 µM and 0.24 µM
O=[N+]([O-])c1cn2c(n1)OC[C@@H](OCc1ccc(OC(F)(F)F)cc1)C2 [PA824, pretomanid]	–	<0.031 µM	<0.031 µM and 0.041 µM and 0.046 µM
[H]/N=C(/N)N[C@H]1[C@H](O)[C@@H](O)[C@H](O[C@@H]2O[C@@H](C)[C@](O)(C=O)[C@H]2O[C@@H]2O[C@@H](CO)[C@H](O)[C@@H](O)[C@@H]2NC)[C@@H](N/C(N)=N\[H])[C@@H]1O [STR, streptomycin]	–	0.15 µM and 0.16 µM	–
CC(=O)NC[C@H]1CN(c2ccc(N3CCOCC3)c(F)c2)C(=O)O1 [LZD, linezolid]	–	2.5 µM and 1.9 µM and 1.6 µM	–
